In assay [1] the target is Serine/threonine-protein kinase 24 (Homo sapiens) (UniProt Q9Y6E0). Put plainly: Inhibition of MST3 (unknown origin) at 1 uM by Ambit Kinomescan binding assay relative to control.
Assay [2] concerns the target Tyrosine-protein kinase Fyn (Homo sapiens) (UniProt P06241). As to the kind of experiment: Inhibition of FYN ACT labeling site in human A-375 cells at 0.05 uM by KiNativ Profiling analysis relative to control. It is filed as cell-based.
Assay [3] deals with eIF-2-alpha kinase GCN2 (Homo sapiens) (UniProt Q9P2K8). As to the kind of experiment: Inhibition of GCN2 domain2 Lys2 labeling site in human A-375 cells at 0.5 uM by KiNativ Profiling analysis relative to control. It is filed as cell-based.
In assay [4] the target is Serine/threonine-protein kinase B-raf (Homo sapiens, UniProt P15056). As to the kind of experiment: Inhibition of BRAF (unknown origin) at 1 uM by Ambit Kinomescan binding assay relative to control.
The target in assay [5] is Leucine-rich repeat serine/threonine-protein kinase 2 (Homo sapiens) (UniProt Q5S007). Put plainly: Inhibition of LRRK2 (unknown origin) at 1 uM by Ambit Kinomescan binding assay relative to control; values are per cent of control.
Sequence of Leucine-rich repeat serine/threonine-protein kinase 2 (Homo sapiens) (Q5S007 whole entry): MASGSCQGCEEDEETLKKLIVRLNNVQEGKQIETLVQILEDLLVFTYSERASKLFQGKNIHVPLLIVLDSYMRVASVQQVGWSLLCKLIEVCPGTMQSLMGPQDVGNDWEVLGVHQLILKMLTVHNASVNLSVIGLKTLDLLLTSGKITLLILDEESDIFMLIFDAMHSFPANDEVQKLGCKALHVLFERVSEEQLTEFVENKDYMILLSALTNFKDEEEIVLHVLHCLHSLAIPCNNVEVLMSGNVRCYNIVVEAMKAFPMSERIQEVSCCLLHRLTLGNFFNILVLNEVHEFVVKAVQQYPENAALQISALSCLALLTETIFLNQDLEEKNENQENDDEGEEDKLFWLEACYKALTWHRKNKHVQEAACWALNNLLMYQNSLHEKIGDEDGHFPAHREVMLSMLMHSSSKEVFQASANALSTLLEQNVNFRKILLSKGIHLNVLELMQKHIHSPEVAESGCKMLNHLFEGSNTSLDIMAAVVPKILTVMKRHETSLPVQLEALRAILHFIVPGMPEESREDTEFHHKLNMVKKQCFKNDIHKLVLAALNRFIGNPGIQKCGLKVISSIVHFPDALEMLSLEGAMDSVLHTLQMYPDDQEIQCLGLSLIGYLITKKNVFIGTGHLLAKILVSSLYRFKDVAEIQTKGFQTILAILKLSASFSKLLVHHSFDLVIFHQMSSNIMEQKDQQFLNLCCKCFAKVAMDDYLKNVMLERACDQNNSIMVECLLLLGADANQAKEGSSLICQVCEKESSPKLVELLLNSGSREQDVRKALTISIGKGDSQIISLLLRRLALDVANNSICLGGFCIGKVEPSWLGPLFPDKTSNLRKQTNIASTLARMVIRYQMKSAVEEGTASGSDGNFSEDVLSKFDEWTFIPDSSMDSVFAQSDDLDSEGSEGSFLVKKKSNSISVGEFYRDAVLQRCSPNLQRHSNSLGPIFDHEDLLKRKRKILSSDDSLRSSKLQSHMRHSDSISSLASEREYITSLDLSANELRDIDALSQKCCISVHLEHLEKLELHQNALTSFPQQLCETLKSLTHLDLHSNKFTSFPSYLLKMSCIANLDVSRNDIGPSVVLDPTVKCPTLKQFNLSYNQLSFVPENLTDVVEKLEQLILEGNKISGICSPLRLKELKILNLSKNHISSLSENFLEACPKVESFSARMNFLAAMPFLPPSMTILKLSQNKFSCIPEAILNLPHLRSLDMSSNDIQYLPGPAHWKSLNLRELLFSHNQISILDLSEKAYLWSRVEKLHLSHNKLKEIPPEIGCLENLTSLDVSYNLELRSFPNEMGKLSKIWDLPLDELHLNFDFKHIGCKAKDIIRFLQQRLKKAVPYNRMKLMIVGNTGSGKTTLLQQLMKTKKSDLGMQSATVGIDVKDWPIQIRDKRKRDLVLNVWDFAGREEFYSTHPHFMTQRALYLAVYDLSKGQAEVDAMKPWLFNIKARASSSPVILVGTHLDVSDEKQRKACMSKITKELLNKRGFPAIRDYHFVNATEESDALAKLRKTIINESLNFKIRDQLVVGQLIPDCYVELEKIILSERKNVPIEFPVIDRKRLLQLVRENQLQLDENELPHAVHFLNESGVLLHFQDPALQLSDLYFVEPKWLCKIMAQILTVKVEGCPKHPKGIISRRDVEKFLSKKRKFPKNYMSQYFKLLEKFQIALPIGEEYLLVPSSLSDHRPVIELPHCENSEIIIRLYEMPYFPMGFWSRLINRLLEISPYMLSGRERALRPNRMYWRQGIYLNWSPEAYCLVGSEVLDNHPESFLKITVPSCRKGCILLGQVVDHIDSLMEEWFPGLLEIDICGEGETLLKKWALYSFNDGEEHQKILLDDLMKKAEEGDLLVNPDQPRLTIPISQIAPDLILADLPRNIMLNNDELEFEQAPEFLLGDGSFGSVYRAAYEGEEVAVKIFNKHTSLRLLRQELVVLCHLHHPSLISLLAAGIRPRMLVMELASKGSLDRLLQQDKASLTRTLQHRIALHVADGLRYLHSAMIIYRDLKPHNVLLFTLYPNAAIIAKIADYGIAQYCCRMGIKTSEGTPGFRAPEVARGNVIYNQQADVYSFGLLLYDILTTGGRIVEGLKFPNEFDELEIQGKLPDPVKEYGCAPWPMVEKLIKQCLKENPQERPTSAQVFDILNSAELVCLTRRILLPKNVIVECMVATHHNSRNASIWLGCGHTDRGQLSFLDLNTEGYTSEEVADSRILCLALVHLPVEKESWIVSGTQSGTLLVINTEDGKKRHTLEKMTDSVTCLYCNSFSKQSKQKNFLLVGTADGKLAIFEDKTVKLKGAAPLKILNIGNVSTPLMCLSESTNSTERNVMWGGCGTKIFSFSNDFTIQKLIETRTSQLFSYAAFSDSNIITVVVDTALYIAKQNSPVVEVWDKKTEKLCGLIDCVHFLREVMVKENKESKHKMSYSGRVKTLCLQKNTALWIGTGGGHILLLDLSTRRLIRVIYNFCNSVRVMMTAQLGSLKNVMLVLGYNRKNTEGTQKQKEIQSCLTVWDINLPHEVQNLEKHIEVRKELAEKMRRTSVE
For assay [6], the target named is Serine/threonine-protein kinase 17A (Homo sapiens) (UniProt Q9UEE5). Put plainly: Inhibition of DRAK1 (unknown origin) at 1 uM by Ambit Kinomescan binding assay relative to control; values are per cent of control.
Assay [7] deals with T1, Phosphatidylinositol 5-phosphate 4-kinase type-2 gamma (Homo sapiens) (UniProt Q8TBX8).
T1 sequence (whole entry): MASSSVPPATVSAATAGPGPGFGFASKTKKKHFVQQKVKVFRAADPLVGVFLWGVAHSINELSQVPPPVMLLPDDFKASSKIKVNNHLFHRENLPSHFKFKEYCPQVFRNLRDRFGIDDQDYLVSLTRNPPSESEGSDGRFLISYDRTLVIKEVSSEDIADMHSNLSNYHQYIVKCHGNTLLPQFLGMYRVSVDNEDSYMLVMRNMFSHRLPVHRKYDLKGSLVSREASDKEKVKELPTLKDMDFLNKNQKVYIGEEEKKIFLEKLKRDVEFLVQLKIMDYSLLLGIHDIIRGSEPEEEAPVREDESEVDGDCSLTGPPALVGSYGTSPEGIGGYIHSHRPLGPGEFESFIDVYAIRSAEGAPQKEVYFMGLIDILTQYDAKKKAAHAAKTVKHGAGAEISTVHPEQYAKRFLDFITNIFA
As to the kind of experiment: Inhibition of PIP4K2C ATP labeling site harbouring TLVIKEVSSEDIADMHSNLSNYHQYIVK in human A-375 cells at 0.5 uM by KiNativ Profiling analysis relative to control. It is filed as cell-based.

For assay [8], the target named is Mitogen-activated protein kinase kinase kinase 4 (Homo sapiens) (UniProt Q9Y6R4). As to the kind of experiment: Inhibition of MAP3K4 Lys2 labeling site in human A-375 cells at 0.05 uM by KiNativ Profiling analysis relative to control. It is filed as cell-based.
For assay [9], the system named is Tyrosine-protein kinase ABL1 (Homo sapiens), P00519 [F317L]. Put plainly: Inhibition of nonphosphorylated ABL1 F317L mutant (unknown origin) at 1 uM by Ambit Kinomescan binding assay relative to control.
Assay [10] deals with Tyrosine-protein kinase Fes/Fps (Homo sapiens, UniProt P07332). As to the kind of experiment: Inhibition of FES (unknown origin) at 1 uM by Ambit Kinomescan binding assay relative to control; values are per cent of control.
In assay [11] the target is T2, Mitogen-activated protein kinase kinase kinase 3 (Homo sapiens) (UniProt Q99759).
T2 sequence (whole entry): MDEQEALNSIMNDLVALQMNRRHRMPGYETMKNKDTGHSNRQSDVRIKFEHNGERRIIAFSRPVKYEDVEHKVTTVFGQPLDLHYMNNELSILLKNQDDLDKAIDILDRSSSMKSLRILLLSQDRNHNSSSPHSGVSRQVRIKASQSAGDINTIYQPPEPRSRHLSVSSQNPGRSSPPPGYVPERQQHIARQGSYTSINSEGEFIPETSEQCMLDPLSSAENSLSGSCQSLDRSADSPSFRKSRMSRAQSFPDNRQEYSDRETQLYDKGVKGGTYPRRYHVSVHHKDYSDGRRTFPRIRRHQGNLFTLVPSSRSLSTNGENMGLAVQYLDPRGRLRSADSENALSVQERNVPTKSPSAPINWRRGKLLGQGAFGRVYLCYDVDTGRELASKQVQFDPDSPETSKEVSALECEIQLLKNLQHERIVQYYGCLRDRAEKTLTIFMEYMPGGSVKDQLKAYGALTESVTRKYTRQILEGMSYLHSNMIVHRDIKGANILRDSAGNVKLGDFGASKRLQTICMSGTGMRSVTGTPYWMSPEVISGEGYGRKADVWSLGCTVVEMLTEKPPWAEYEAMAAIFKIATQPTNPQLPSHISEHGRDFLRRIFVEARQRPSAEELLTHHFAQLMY
As to the kind of experiment: Inhibition of MAP3K3 (unknown origin) at 10 uM by Ambit Kinomescan binding assay relative to control.

In assay [12] the target is Casein kinase I isoform delta (Homo sapiens) (UniProt P48730). As to the kind of experiment: Inhibition of CSNK1D (unknown origin) at 10 uM by Ambit Kinomescan binding assay.
Sequence of Casein kinase I isoform delta (Homo sapiens) (P48730 whole entry, looked up, the tested form may be a part, canonical isoform): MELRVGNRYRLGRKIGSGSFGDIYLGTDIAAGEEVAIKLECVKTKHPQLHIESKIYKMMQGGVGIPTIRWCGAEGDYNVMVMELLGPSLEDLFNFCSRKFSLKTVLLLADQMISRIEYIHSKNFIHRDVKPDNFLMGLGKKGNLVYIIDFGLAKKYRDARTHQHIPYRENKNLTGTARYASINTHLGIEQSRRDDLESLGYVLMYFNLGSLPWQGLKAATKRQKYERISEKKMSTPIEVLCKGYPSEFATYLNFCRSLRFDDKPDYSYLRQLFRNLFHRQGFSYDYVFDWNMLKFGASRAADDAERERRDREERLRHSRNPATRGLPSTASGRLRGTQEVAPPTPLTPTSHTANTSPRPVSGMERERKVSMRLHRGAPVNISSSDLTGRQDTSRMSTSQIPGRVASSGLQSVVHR
In assay [13] the target is Tyrosine-protein kinase JAK3 (Homo sapiens) (UniProt P52333). As to the kind of experiment: Inhibition of JAK3 JH1catalytic domain (unknown origin) at 10 uM by Ambit Kinomescan binding assay relative to control; values are per cent of control.
Assay [14] addresses Casein kinase I isoform gamma-1 (Homo sapiens) (UniProt Q9HCP0). Put plainly: Inhibition of CSNK1G1 (unknown origin) at 10 uM by Ambit Kinomescan binding assay.
For assay [15], the target named is Calcium/calmodulin-dependent protein kinase type II subunit gamma (Homo sapiens) (UniProt Q13555). As to the kind of experiment: Inhibition of CaMK2g Lys1 labeling site harbouring TSTQEYAAKIINTK in human Huh-7 cells at 1 uM by KiNativ Profiling analysis relative to control. It is filed as cell-based.
Sequence of Calcium/calmodulin-dependent protein kinase type II subunit gamma (Homo sapiens) (Q13555 whole entry): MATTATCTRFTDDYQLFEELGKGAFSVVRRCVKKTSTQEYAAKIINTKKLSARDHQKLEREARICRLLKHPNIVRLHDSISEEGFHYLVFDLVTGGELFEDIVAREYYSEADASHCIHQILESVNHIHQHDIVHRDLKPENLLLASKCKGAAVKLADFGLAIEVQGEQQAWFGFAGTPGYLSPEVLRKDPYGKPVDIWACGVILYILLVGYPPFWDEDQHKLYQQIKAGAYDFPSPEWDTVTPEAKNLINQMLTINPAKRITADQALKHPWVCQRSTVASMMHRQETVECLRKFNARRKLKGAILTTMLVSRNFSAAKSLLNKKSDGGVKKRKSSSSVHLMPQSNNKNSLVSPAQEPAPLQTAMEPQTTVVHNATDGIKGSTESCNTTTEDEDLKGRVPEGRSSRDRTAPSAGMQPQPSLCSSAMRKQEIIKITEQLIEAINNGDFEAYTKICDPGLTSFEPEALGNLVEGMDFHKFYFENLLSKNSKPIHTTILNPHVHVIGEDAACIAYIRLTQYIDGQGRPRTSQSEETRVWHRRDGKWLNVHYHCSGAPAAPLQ
The target of assay [16] is Cyclin-dependent kinase 10 (Homo sapiens) (UniProt Q15131). As to the kind of experiment: Inhibition of CDK10 Lys2 labeling site in human Huh-7 cells at 1 uM by KiNativ Profiling analysis relative to control. It is filed as cell-based.
Sequence of Cyclin-dependent kinase 10 (Homo sapiens) (Q15131 whole entry): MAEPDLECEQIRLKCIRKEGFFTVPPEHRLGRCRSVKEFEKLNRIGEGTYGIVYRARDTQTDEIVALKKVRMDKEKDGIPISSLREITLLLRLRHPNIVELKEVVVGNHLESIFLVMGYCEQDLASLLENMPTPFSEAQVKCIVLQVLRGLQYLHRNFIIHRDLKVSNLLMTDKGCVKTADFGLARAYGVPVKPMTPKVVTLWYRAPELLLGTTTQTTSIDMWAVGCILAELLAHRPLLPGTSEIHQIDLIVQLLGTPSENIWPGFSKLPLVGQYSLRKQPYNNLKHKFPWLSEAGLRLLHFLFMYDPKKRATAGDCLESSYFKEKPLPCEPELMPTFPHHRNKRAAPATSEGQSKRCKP
For assay [17], the target named is Calcium/calmodulin-dependent protein kinase type II subunit gamma (Homo sapiens) (UniProt Q13555). As to the kind of experiment: Inhibition of CaMK2g Lys2 labeling site in human Huh-7 cells at 1 uM by KiNativ Profiling analysis relative to control. It is filed as cell-based.
Assay [18] deals with Tyrosine-protein kinase CSK (Homo sapiens, UniProt P41240). As to the kind of experiment: Inhibition of CSK ACT labeling site harbouring EASSTQDTGKLPVKWTAPEALR in human Huh-7 cell lysate at 1 uM by KiNativ Profiling analysis relative to control. It is filed as subcellular.

In ChEMBL document CHEMBL5696442, “Discovery of type II inhibitors of TGFβ-activated kinase 1 (TAK1) and mitogen-activated protein kinase kinase kinase kinase 2 (MAP4K2)” (J Med Chem, 2015) one finds inhibition, residual activity and percent of control data, which are given here for 3 compounds.

Structures are written as SMILES. The source made the active and inactive calls. No cut-off for these calls is given here.

Sequence of Tyrosine-protein kinase Fyn (Homo sapiens) (P06241 2-537 limits assumed): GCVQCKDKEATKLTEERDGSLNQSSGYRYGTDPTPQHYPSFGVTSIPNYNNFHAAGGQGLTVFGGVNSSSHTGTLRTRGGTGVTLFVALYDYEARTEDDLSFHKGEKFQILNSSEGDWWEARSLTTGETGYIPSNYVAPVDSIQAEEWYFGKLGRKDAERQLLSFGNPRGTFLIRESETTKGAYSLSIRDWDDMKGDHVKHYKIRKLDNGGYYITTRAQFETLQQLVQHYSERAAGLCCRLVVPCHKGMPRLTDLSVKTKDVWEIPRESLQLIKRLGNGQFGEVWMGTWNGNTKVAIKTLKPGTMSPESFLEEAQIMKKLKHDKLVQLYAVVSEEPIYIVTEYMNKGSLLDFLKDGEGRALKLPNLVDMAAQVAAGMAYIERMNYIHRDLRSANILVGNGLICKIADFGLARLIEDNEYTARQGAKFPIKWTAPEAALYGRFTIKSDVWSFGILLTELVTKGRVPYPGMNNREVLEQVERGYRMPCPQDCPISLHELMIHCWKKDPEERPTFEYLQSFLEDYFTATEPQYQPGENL
Sequence of Casein kinase I isoform gamma-1 (Homo sapiens) (Q9HCP0 whole entry, looked up, canonical isoform): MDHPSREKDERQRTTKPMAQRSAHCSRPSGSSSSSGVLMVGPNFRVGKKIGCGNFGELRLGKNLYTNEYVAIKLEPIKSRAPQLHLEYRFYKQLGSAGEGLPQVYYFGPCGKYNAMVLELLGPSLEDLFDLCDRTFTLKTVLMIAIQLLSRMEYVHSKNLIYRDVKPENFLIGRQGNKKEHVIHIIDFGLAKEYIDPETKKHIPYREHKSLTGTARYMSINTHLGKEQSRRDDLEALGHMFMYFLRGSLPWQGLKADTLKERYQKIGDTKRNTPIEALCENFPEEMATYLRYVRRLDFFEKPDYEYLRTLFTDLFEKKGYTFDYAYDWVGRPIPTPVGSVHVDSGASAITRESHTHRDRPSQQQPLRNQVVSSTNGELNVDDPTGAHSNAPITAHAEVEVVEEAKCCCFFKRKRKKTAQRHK

`CCN1CCN(Cc2ccc(NC(=O)c3ccc(C)c(/C=C/c4cnc5[nH]ccc5c4OC)c3)cc2C(F)(F)F)CC1`: the inhibition in [1] is 75%; in assay [2], 38.9%; in assay [3], 44.6%; in [4], 17%; in assay [7] it was 5.9%; in assay [8], -0.6%. In assay [9], the inhibition worked out at 0%. The residual activity in assay [5] amounted to 53%; in [6] it was 52%; in [10], 6.8%.
Turning to `CCN1CCN(Cc2ccc(NC(=O)c3ccc(C)c(Oc4ccnc5[nH]ccc45)c3)cc2C(F)(F)F)CC1`, the inhibition in [11] came out at 12%. In addition, the inhibition entry in assay [12] and in assay [14] was “inactive” in each case. Also, the percent of control in assay [13] was determined as 2.4%.
Regarding `CNc1cc(Oc2cc(C(=O)Nc3cc(N4CCN(C)CC4)cc(C(F)(F)F)c3)ccc2C)ncn1`, the inhibition in assay [15] worked out at 27.1%; in [16], 59.3%; in assay [17] it was 20.3%; in [18], 0.4%.
